According to PubChem BioAssay (NCI):
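Values below derive from 48-hour exposures of cells grown in 96-well plates, with endpoints linearly interpolated between the two concentrations bracketing the appropriate inhibition level. TGI denotes the concentration required for complete inhibition of growth.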

Legend:
Experiment in all cases: inhibition of tumour cell growth, NCI panel, 48 h
SNB-75 CNS = test system: SNB-75 CNS
HCC-2998 colon = test system: HCC-2998 colon
HOP-92 NSCLC = test system: HOP-92 NSCLC
TK-10 renal = test system: TK-10 renal
MALME-3M melanoma = test system: MALME-3M melanoma
HT29 colon = test system: HT29 colon
HS 578T breast = test system: HS 578T breast
OVCAR-4 ovarian = test system: OVCAR-4 ovarian
OVCAR-3 ovarian = test system: OVCAR-3 ovarian
NCI/ADR-RES ovarian = test system: NCI/ADR-RES ovarian
RPMI-8226 leukemia = test system: RPMI-8226 leukemia
RXF 393 renal = test system: RXF 393 renal
NCI-H226 lung = test system: NCI-H226 lung
LOX IMVI melanoma = test system: LOX IMVI melanoma
UACC-257 melanoma = test system: UACC-257 melanoma
OVCAR-8 ovarian = test system: OVCAR-8 ovarian
SK-MEL-2 melanoma = test system: SK-MEL-2 melanoma
SF-539 CNS = test system: SF-539 CNS
SF-268 CNS = test system: SF-268 CNS
MDA-N = test system: MDA-N
NCI-H23 lung = test system: NCI-H23 lung
CAKI-1 renal = test system: CAKI-1 renal
HCT-15 colon = test system: HCT-15 colon
T-47D breast = test system: T-47D breast
SN12C renal = test system: SN12C renal
ACHN renal = test system: ACHN renal
SK-OV-3 ovarian = test system: SK-OV-3 ovarian
MDA-MB-435 = test system: MDA-MB-435
SNB-19 CNS = test system: SNB-19 CNS
COLO 205 colon = test system: COLO 205 colon
UO-31 renal = test system: UO-31 renal
BT-549 breast = test system: BT-549 breast
SK-MEL-28 melanoma = test system: SK-MEL-28 melanoma
HOP-62 NSCLC = test system: HOP-62 NSCLC
NCI-H522 lung = test system: NCI-H522 lung
HCT-116 colon = test system: HCT-116 colon
MDA-MB-231 breast = test system: MDA-MB-231 breast
SF-295 CNS = test system: SF-295 CNS
IGROV1 ovarian = test system: IGROV1 ovarian
U251 CNS = test system: U251 CNS
NCI-H460 lung = test system: NCI-H460 lung
K-562 leukemia = test system: K-562 leukemia
MOLT-4 leukemia = test system: MOLT-4 leukemia
EKVX NSCLC = test system: EKVX NSCLC
DU-145 prostate = test system: DU-145 prostate
A549 NSCLC = test system: A549 NSCLC
SK-MEL-5 melanoma = test system: SK-MEL-5 melanoma
786-0 renal = test system: 786-0 renal
UACC-62 melanoma = test system: UACC-62 melanoma
KM12 colon = test system: KM12 colon
SW-620 colon = test system: SW-620 colon
HL-60(TB) leukemia = test system: HL-60(TB) leukemia
M14 melanoma = test system: M14 melanoma
PC-3 prostate = test system: PC-3 prostate
MCF7 breast = test system: MCF7 breast
A498 renal = test system: A498 renal
CCRF-CEM leukemia = test system: CCRF-CEM leukemia
OVCAR-5 ovarian = test system: OVCAR-5 ovarian
SR leukemia = test system: SR leukemia

CC(C)C1=CC23CCC4C(C)(C(=O)O)CCCC4(C)C2CC1C1C(=O)N(c2ccc(C(=O)O)cc2)C(=O)C13 (stereo not given)
TGI (SNB-75 CNS): > 100 µM
TGI (HCC-2998 colon): > 100 µM
TGI (HOP-92 NSCLC): > 100 µM
TGI (TK-10 renal): > 100 µM
TGI (MALME-3M melanoma): > 100 µM
TGI (HT29 colon): > 100 µM
TGI (HS 578T breast): > 100 µM
TGI (OVCAR-4 ovarian): > 100 µM
TGI (OVCAR-3 ovarian): > 100 µM
TGI (NCI/ADR-RES ovarian): > 100 µM
TGI (RPMI-8226 leukemia): > 100 µM
TGI (RXF 393 renal): > 100 µM
TGI (NCI-H226 lung): > 100 µM
TGI (LOX IMVI melanoma): > 100 µM
TGI (UACC-257 melanoma): > 100 µM
TGI (OVCAR-8 ovarian): > 100 µM
TGI (SK-MEL-2 melanoma): > 100 µM
TGI (SF-539 CNS): > 100 µM
TGI (SF-268 CNS): > 100 µM
TGI (MDA-N): > 100 µM
TGI (NCI-H23 lung): > 100 µM
TGI (CAKI-1 renal): > 100 µM
TGI (HCT-15 colon): > 100 µM
TGI (T-47D breast): > 100 µM
TGI (SN12C renal): > 100 µM
TGI (ACHN renal): > 100 µM
TGI (SK-OV-3 ovarian): > 100 µM
TGI (MDA-MB-435): > 100 µM
TGI (SNB-19 CNS): > 100 µM
TGI (COLO 205 colon): > 100 µM
TGI (UO-31 renal): > 100 µM
TGI (BT-549 breast): > 100 µM
TGI (SK-MEL-28 melanoma): > 100 µM
TGI (HOP-62 NSCLC): > 100 µM
TGI (NCI-H522 lung): > 100 µM
TGI (HCT-116 colon): > 100 µM
TGI (MDA-MB-231 breast): > 100 µM
TGI (SF-295 CNS): > 100 µM
TGI (IGROV1 ovarian): > 100 µM
TGI (U251 CNS): > 100 µM
TGI (NCI-H460 lung): > 100 µM
TGI (K-562 leukemia): > 100 µM
TGI (MOLT-4 leukemia): > 100 µM
TGI (EKVX NSCLC): > 100 µM
TGI (DU-145 prostate): > 100 µM
TGI (A549 NSCLC): > 100 µM
TGI (SK-MEL-5 melanoma): > 100 µM
TGI (786-0 renal): > 100 µM
TGI (UACC-62 melanoma): > 100 µM
TGI (KM12 colon): > 100 µM
TGI (SW-620 colon): > 100 µM
TGI (HL-60(TB) leukemia): > 100 µM
TGI (M14 melanoma): > 100 µM
TGI (PC-3 prostate): > 100 µM
TGI (MCF7 breast): > 100 µM

COc1cc(C(c2ccc3c(c2)OCO3)N2C(=O)CCC2C(=O)O)cc(OC)c1OC (stereo not given)
TGI (SNB-75 CNS): > 100 µM
TGI (HCC-2998 colon): > 100 µM
TGI (HOP-92 NSCLC): > 100 µM
TGI (TK-10 renal): > 100 µM
TGI (MALME-3M melanoma): > 100 µM
TGI (HT29 colon): > 100 µM
TGI (HS 578T breast): > 100 µM
TGI (OVCAR-4 ovarian): > 100 µM
TGI (OVCAR-3 ovarian): > 100 µM
TGI (NCI/ADR-RES ovarian): > 100 µM
TGI (RPMI-8226 leukemia): > 100 µM
TGI (NCI-H226 lung): > 100 µM
TGI (A498 renal): > 100 µM
TGI (LOX IMVI melanoma): > 100 µM
TGI (UACC-257 melanoma): > 100 µM
TGI (OVCAR-8 ovarian): > 100 µM
TGI (SK-MEL-2 melanoma): > 100 µM
TGI (SF-539 CNS): > 100 µM
TGI (SF-268 CNS): > 100 µM
TGI (MDA-N): > 100 µM
TGI (NCI-H23 lung): > 100 µM
TGI (CAKI-1 renal): > 100 µM
TGI (HCT-15 colon): > 100 µM
TGI (T-47D breast): > 100 µM
TGI (SN12C renal): > 100 µM
TGI (ACHN renal): > 100 µM
TGI (SK-OV-3 ovarian): > 100 µM
TGI (MDA-MB-435): > 100 µM
TGI (SNB-19 CNS): > 100 µM
TGI (COLO 205 colon): > 100 µM
TGI (UO-31 renal): > 100 µM
TGI (BT-549 breast): > 100 µM
TGI (SK-MEL-28 melanoma): > 100 µM
TGI (HOP-62 NSCLC): > 100 µM
TGI (NCI-H522 lung): > 100 µM
TGI (CCRF-CEM leukemia): > 100 µM
TGI (HCT-116 colon): > 100 µM
TGI (MDA-MB-231 breast): > 100 µM
TGI (SF-295 CNS): > 100 µM
TGI (OVCAR-5 ovarian): > 100 µM
TGI (IGROV1 ovarian): > 100 µM
TGI (U251 CNS): > 100 µM
TGI (NCI-H460 lung): > 100 µM
TGI (K-562 leukemia): > 100 µM
TGI (MOLT-4 leukemia): > 100 µM
TGI (EKVX NSCLC): > 100 µM
TGI (DU-145 prostate): > 100 µM
TGI (A549 NSCLC): > 100 µM
TGI (SK-MEL-5 melanoma): > 100 µM
TGI (786-0 renal): > 100 µM
TGI (UACC-62 melanoma): > 100 µM
TGI (KM12 colon): > 100 µM
TGI (SW-620 colon): > 100 µM
TGI (HL-60(TB) leukemia): > 100 µM
TGI (M14 melanoma): > 100 µM
TGI (PC-3 prostate): > 100 µM
TGI (MCF7 breast): > 100 µM

Cc1ccc(S(=O)(=O)NCCSCCSCCNS(=O)(=O)c2ccc(C)cc2)cc1
TGI (SNB-75 CNS): 68.7 µM
TGI (HCC-2998 colon): > 100 µM
TGI (HOP-92 NSCLC): > 100 µM
TGI (TK-10 renal): > 100 µM
TGI (HT29 colon): > 100 µM
TGI (HS 578T breast): > 100 µM
TGI (OVCAR-4 ovarian): > 100 µM
TGI (NCI/ADR-RES ovarian): > 100 µM
TGI (RXF 393 renal): > 100 µM
TGI (NCI-H226 lung): > 100 µM
TGI (A498 renal): 91.6 µM
TGI (LOX IMVI melanoma): > 100 µM
TGI (UACC-257 melanoma): > 100 µM
TGI (OVCAR-8 ovarian): > 100 µM
TGI (SF-268 CNS): > 100 µM
TGI (MDA-N): > 100 µM
TGI (SN12C renal): > 100 µM
TGI (ACHN renal): > 100 µM
TGI (SK-OV-3 ovarian): > 100 µM
TGI (SNB-19 CNS): > 100 µM
TGI (COLO 205 colon): 41.2 µM
TGI (UO-31 renal): > 100 µM
TGI (SR leukemia): > 100 µM
TGI (SK-MEL-28 melanoma): > 100 µM
TGI (NCI-H522 lung): > 100 µM
TGI (CCRF-CEM leukemia): > 100 µM
TGI (HCT-116 colon): > 100 µM
TGI (SF-295 CNS): > 100 µM
TGI (NCI-H460 lung): > 100 µM
TGI (K-562 leukemia): > 100 µM
TGI (MOLT-4 leukemia): > 100 µM
TGI (DU-145 prostate): > 100 µM
TGI (A549 NSCLC): > 100 µM
TGI (SK-MEL-5 melanoma): 18 µM
TGI (KM12 colon): > 100 µM
TGI (SW-620 colon): > 100 µM
TGI (PC-3 prostate): > 100 µM
TGI (MCF7 breast): > 100 µM

CN(C)c1ccc(N=Nc2ccncc2)cc1
TGI (HCC-2998 colon): 92.6 µM
TGI (HOP-92 NSCLC): 98.6 µM
TGI (TK-10 renal): > 100 µM
TGI (MALME-3M melanoma): > 100 µM
TGI (HT29 colon): > 100 µM
TGI (HS 578T breast): > 100 µM
TGI (OVCAR-4 ovarian): > 100 µM
TGI (OVCAR-3 ovarian): > 100 µM
TGI (NCI/ADR-RES ovarian): > 100 µM
TGI (RPMI-8226 leukemia): > 100 µM
TGI (RXF 393 renal): > 100 µM
TGI (NCI-H226 lung): > 100 µM
TGI (A498 renal): > 100 µM
TGI (LOX IMVI melanoma): > 100 µM
TGI (UACC-257 melanoma): > 100 µM
TGI (OVCAR-8 ovarian): > 100 µM
TGI (SF-539 CNS): > 100 µM
TGI (SF-268 CNS): > 100 µM
TGI (MDA-N): > 100 µM
TGI (NCI-H23 lung): > 100 µM
TGI (CAKI-1 renal): > 100 µM
TGI (HCT-15 colon): > 100 µM
TGI (T-47D breast): > 100 µM
TGI (SN12C renal): > 100 µM
TGI (ACHN renal): > 100 µM
TGI (SK-OV-3 ovarian): > 100 µM
TGI (MDA-MB-435): > 100 µM
TGI (SNB-19 CNS): > 100 µM
TGI (COLO 205 colon): > 100 µM
TGI (UO-31 renal): > 100 µM
TGI (BT-549 breast): > 100 µM
TGI (SK-MEL-28 melanoma): > 100 µM
TGI (HOP-62 NSCLC): > 100 µM
TGI (CCRF-CEM leukemia): > 100 µM
TGI (HCT-116 colon): > 100 µM
TGI (MDA-MB-231 breast): > 100 µM
TGI (SF-295 CNS): > 100 µM
TGI (OVCAR-5 ovarian): > 100 µM
TGI (IGROV1 ovarian): > 100 µM
TGI (U251 CNS): > 100 µM
TGI (NCI-H460 lung): > 100 µM
TGI (K-562 leukemia): > 100 µM
TGI (MOLT-4 leukemia): > 100 µM
TGI (EKVX NSCLC): > 100 µM
TGI (DU-145 prostate): > 100 µM
TGI (A549 NSCLC): > 100 µM
TGI (SK-MEL-5 melanoma): > 100 µM
TGI (786-0 renal): > 100 µM
TGI (UACC-62 melanoma): > 100 µM
TGI (KM12 colon): > 100 µM
TGI (SW-620 colon): > 100 µM
TGI (HL-60(TB) leukemia): > 100 µM
TGI (M14 melanoma): > 100 µM
TGI (PC-3 prostate): > 100 µM
TGI (MCF7 breast): > 100 µM
